Test results: patent publication US8637494B2, “Method of achieving normoglycemia in diabetics by administration of Withaferin A” (priority 2010, dated 2014)

Experiments:
MCP-1 and IP-10 = test: Immunohistochemical staining of MCP-1 and IP-10 (HRP/DAB); assay type: cell-based, human; conditions: Withaferin A and cytokine treatment vs cytokine treatment
Experimental: Immunohistochemical Staining: After culture, islets were embedded in OCT compound, flash frozen in liquid nitrogen and stored at −80° C. until sectioning. Nine μm sections of embedded islets were taken and stained for IP-10 (1:100), MCP-1 (1:20), or insulin (1:75) using standard immunohistochemical techniques. Staining was visualized using an HRP-conjugated secondary antibody conjugated with diaminobenzidine (DAB). Samples were then counterstained with hematoxylin, dehydrated and mounted. Images were acquired.
The IP-10 expression level was examined by flow cytometry. After treatment, islets were fixed, permeablized and aliquoted to three tubes staining with anti-IP10.

[1] = system: inflammatory cytokines and chemokines (iNOS, IL-1β, RANTES, MIG, IP-10) in human islets; conditions: human islets exposed to inflammatory cytokines, qPCR; cited from earlier work
[2] = IPGTT on day 30 post transplant; assay type: in vivo, C57BL/6 mice
Experimental: Intraperitoneal glucose tolerance test was performed on day 30 post transplant to assess glycemic control of Withaferin A-treated and vehicle-treated (11E) mice; also naïve and STZ-induced diabetic mice were challenged with glucose for comparison. After 12-14 hours of fasting, mice were injected with a 5% glucose solution (1 mg/kg body weight) and blood glucose levels were monitored at 0, 30, and 120 minutes afterwards.
IPGTT: Naïve, transplanted, and STZ induced diabetic mice were used to perform an intraperitoneal glucose tolerance test. The mouse's food was removed for 12-14 hours, then an injection of glucose (1 mg/kg body weight, 5% glucose solution in DPBS) was administered intraperitoneally. Blood glucose was monitored with Accu-Chek at 0, 30, and 120 minutes after the injection.
To evaluate the islet graft function, IPGTT was performed on cured mice and vehicle treated mice on day 30. To control for the pattern in islet function, naïve and STZ-induced diabetic mice were tested as well. After 12 to 14 hours of fasting, mice were injected with a 5% glucose solution (2 mg/kg body weight) and blood sugar levels were measured at zero, thirty, and one hundred twenty minutes after the injection.

mouse islets = test: Glucose stimulated static incubation assay, mouse islets
Experimental: (§1) Cytokine & Withaferin A Treatment: After isolation and overnight culture, islets were subjected to an in-vitro model of inflammatory conditions with a cytokine cocktail of the species specific recombinant proteins (1,000 U/mL TNF-α, 1,000 U/mL IFN-γ, and 50 U/mL IL-1β dissolved in human or mouse islet culture media). Islets were treated by Withaferin A co-culture at concentrations ranging from 0.25 to 2.0 μg/mL. Control islets were cultured in the appropriate culture media lacking both the cytokine cocktail and Withaferin A. All islets were cultured in a humidified incubation chamber at 37° C. with 5% CO2 for the indicated time.
(§2) Glucose Stimulated Static Incubation Assay: Islets in each experimental condition were incubated with low (2.8 mM) and then high (20.0 mM) concentrations of glucose solution in Functionality/Viability Medium CMRL1066 (Mediatech, Inc. Manassas, Va.) for 1 hour each at 37° C. Insulin concentrations were measured by an insulin ELISA kit (ALPCO Diagnostics, Salem, N.H.). The insulin secretion levels were normalized by total DNA of the stimulated islets. Studies were performed in triplicate with 10 islets in each group.

[3] = system: inflammatory gene expression in human islets; test: RT-PCR human inflammation gene array, cytokine-treated islets; assay type: cell-based
Experimental: as §1

[4] = system: RANTES, IP10, MIG, IL-1β, iNOS expression in human islets; test: RT-PCR single gene primer assays, dose and time course in human islets; assay type: cell-based
Experimental: Cytokine & Withaferin A Treatment: After isolation and overnight culture, islets were subjected to an in-vitro model of inflammatory conditions with a cytokine cocktail of the species specific recombinant proteins (1,000 U/mL TNF-α, 1,000 U/mL IFN-γ, and 50 U/mL IL-1β dissolved in human or mouse islet culture media). […] Control islets were cultured in the appropriate culture media lacking both the cytokine cocktail and Withaferin A. All islets were cultured in a humidified incubation chamber at 37° C. with 5% CO2 for the indicated time.

human islets [5] = test: Viability determination by Hoechst 342/PI, human islets; assay type: cell-based; conditions: for viability of human islets exposed to cytokines: 24 hours (cytokines 85.8±3.9%, control 93.5±3.2%)
Experimental: FIGS. 5A-5D show the optimal Withaferin A dosing is found without toxicity to islets: Human (5A and 5B) and mouse (5C and 5D) islets were cultured with Withaferin A. Samples were taken at 24 and 48 hours and stained with Hoechst 342 (all nuclei) and propidium iodide (necrotic nuclei). The percent viability was determined as the PI^+ area subtracted from the total area (Hoe342 stained). The optimal Withaferin A dose was determined to be 1.0 μg/mL Withaferin A for human islets (5A) and 0.5 μg/mL for mouse islets (5C). Asterisks above bars indicate statistically significant differences in mean values (*p<0.05 for 48 h and **p<0.001 for 24 and 48 hours) between controls and islets exposed to Withaferin A based on two-tailed Student's t test; N=10;
Viability Determination by Hoechst 342/PI: For immediate in vitro determination of necrosis, islets were incubated with Hoechst 342 (10 μg/mL) and propidium iodide (20 μg/mL) for 10 minutes at 37° C. before imaging via fluorescent microscopy. Fluorescent microsgraphs were merged in Image J (NIH Bethesda, Md.) and the propidium iodide positive area was divided by the Hoechst 342 positive area to provide a calculation of islet viability.

[6] = system: MIN6, a mouse beta cell line; test: RT-PCR gene expression in MIN6 cells; assay type: cell-based
Experimental: RT-PCR Inflammation Array and Primer Assays: After proper time of treatment, islets were harvested and lysed in lysis buffer (Stratagene, La Jolla Calif.). RNA was purified by Absolutely RNA Miniprep kit (Stratagene) and then reverse transcribed into cDNA by RT2 Firststrand kit (SABiosciences, Frederick Md.). […] The RT-PCR reaction was run in Stratagene MX3000 with following program: 95° C., 10 minutes; 40 cycles of (95° C., 15 second; and 60° C., 60 second). Cycle threshold data was uploaded to a Web-Based PCR Array Data Analysis on SABiociences website and fold change compared to control was analyzed.
Procedure for single gene primer assays was the same except primers of particular genes other than the whole array plate were used.

islets [7] = test: FDA/PI staining islet viability, dose effect study; conditions: 48 hours culture
Experimental: Viability was assessed using fluorescein diacetate (FDA) and propidium iodide (PI). Islets used for the studies were 80 to 90% viable, with a purity of 60 to 85%. Human islets used were handpicked to greater than 95% purity. Islets were cultured with CMRL-based human islet culture media containing 0.1% BSA with Kanamycin at 37° C.
The viability and apoptosis test of islet with four different concentrations of Withaferin A (0.5 μg/mL, 1 μg/mL, 2 μg/mL and 4 μg/mL) was examined. FDA/PI staining was used to determine the islet viability.

human islets [8] = test: Glucose stimulated static incubation assay, human islets; conditions: for stimulation index, human islets: 24 hours, no cytokines (control 3.11±1.53)
Experimental: as §1, §2

islets [9] = test: TUNEL assay, FITC positive population, dose effect study
Experimental: The present inventors conducted a dose effect study of Withaferin A on islets. […] The viability and apoptosis test of islet with four different concentrations of Withaferin A (0.5 μg/mL, 1 μg/mL, 2 μg/mL and 4 μg/mL) was examined. FDA/PI staining was used to determine the islet viability.

[10] = system: NF-κB p65 in human β cells; test: p65 translocation assay; assay type: cell-based; conditions: 24 hours (control 21.6±5.3%, cytokines 41.3±13.5%)
Experimental: Graphical representations (7B) are expressed as means±STD. Asterisks above bars indicate significant differences in mean values (*p<0.05) as determined by Turkey-Kramer post-hoc tests;
p65 Translocation Assay: NF-κB, p65, translocation was determined by overlap of Alexa-488 labeled NF-κB and DAPI stained nuclei, pseudocolored red by Image J for visualization. […] Nuclei positive for activated NF-κB translocation was counted in insulin positive cells and divided by the total number of beta-cells.
To determine whether NF-κB has been activated and moved to the nucleus, immunohistochemistry was performed to locate the p65 portion of NF-κB as described elsewhere.^12 All nuclei in insulin positive human β cells were counted and when NF-κB was stained in the nucleus it was classified NF-κB^+ and nuclei without NF-κB were classified NF-κB^− (FIG. 7A). Percent NF-κB activation was measured at 24 hours after culture with the cytokine cocktail and Withaferin A (FIG. 7B).

[11] = system: MCP-1 and IP-10 in human islets; test: Fluorescent immunohistochemistry, mean fluorescent intensity of MCP-1 and IP-10; assay type: cell-based; conditions: cytokine cocktail + 0.5 μg/mL Withaferin A, 24 hours
Experimental: Islet sections were captured under similar conditions and mean fluorescent intensity values were measured. […] Significant differences between mean values groups as determined by Turkey-Kramer post-hoc tests are indicated by an asterisk (*p<0.05) above bars;
Immunohistochemistry: Engrafted livers and cytokine treated islets were preserved in 10% formalin, embedded in paraffin and sectioned at 5 μm. Tissue sections were deparaffinized in xylene (twice for 5 minutes) and series of ethanol gradients (100%, 95%, 90%, 80%, 70%, and 50% ethanol diluted with water for 2 minutes each). Next, sections were heated at 98° C. in 1× Antigen Retrieval Reagent-Universal (R&D Systems) for 20 minutes. Then tissue samples were blocked for non-specific bonding by AquaBlock (EastCoast Bio) for 1 hour at room temperature. Next the primary antibody, diluted in a background reducing antibody diluent, was applied overnight at 4° C. Next, the appropriate fluorescently conjugated secondary antibody (diluted 1000×) was applied for 1 hour at room temperature protected from light. […] Micrographs were imported to Image J, converted to 8-bit grayscale photos, then the mean fluorescence intensity was measured by limiting the region of interest to a single islet via the thresholding function of the program. Mean fluorescent intensity is calculated at the integrated density divided by the area in the region of interest.

SMILES: CC1=C(CO)C(=O)O[C@@H]([C@@H](C)[C@H]2CC[C@H]3[C@@H]4C[C@H]5O[C@]56[C@@H](O)C=CC(=O)[C@]6(C)[C@H]4CC[C@]23C)C1 [Withaferin A]
- intensity of MCP-1 staining and IP-10 staining (MCP-1 and IP-10): decreased the intensity
- decrease of mRNA levels of several chemokines [1]: ten-fold or more
- blood glucose, IPGTT ([2]; 0 minutes, day 30 (vehicle 485±95.4)): 150.3 ± 89.2 mg/dL
- blood glucose, IPGTT ([2]; 30 minutes, day 30 (vehicle 523.8±95.3)): 267.8 ± 84.8 mg/dL
- stimulation index, mouse islets (mouse islets; 0.5 μg/mL, 24 hours, no cytokines (control 11.13±9.28)): 7.05±2.20
- stimulation index, mouse islets exposed to cytokines (mouse islets; cytokines with or without Withaferin A, twenty four hours): did not show any significant differences
- inflammatory gene expression, Withaferin A treated group vs control ([3]; Withaferin A alone, no cytokines): no significant difference
- inflammatory gene expression, cytokine and Withaferin A group vs cytokine alone group ([3]; human islets, FIG. 1B): significantly down regulated
- inhibition of inflammatory gene expression (FIG. 1C) ([3]; human islets, cytokine cocktail + Withaferin A vs cytokine alone, all three donors): 60%-100
- expression level of IL-1β, RANTES, MIG and IP-10 vs cytokine alone ([4]; 1 μg Withaferin A and cytokines, 12, 24, 36 and 48 hour): significantly inhibited
- expression of RANTES, IP10, MIG, IL-1β and iNOS ([4]; 0.5, 1, 2 and 4 μg per mL with cytokines): decreased with the increase in Withaferin A concentration
- viability of human islets (human islets [5]; 0.5 μg/mL, 48 hours, no cytokines (control 91.8±7.4%)): 89.0±4.6%
- viability of human islets (human islets [5]; 1.0 μg/mL, 48 hours, no cytokines (control 91.8±7.4%)): 91.9±3.5%
- viability of human islets (human islets [5]; 2.0 μg/mL, 24 hours, no cytokines (control 94.9±4.5%)): 70.5±8.8%
- viability of human islets exposed to cytokines (human islets [5]; cytokine cocktail + 0.5 μg/mL): 92.6±5.1%
- viability of human islets exposed to cytokines (human islets [5]; cytokine cocktail + 1.0 μg/mL): 94.6±2.9%
- optimal Withaferin A dose without toxicity to islets (human islets [5]; human islets, 24 and 48 hours): 1.0 µg/mL
- IP10, RANTES and MCP-1 expression upregulated by cytokine treatment [6]: could be inhibited
- islet viability (FDA/PI) (islets [7]; 0.5 μg/mL): not decreased
- islet viability (FDA/PI) (islets [7]; 1 μg/mL): not decreased
- islet viability (FDA/PI) (islets [7]; 2 μg/mL): slight decrease
- islet viability (FDA/PI) (islets [7]; 4 μg/mL): significant loss
- stimulation index, human islets (human islets [8]; 0.5 μg/mL): 3.52±1.97
- Stimulation Index vs control group (human islets [8]; 1 μg/mL Withaferin A, no cytokines (FIG. 4D)): no significant difference
- stimulation index, human islets (human islets [8]; 1.0 μg/mL): 4.21±0.41
- stimulation index, human islets exposed to cytokines (human islets [8]; cytokines + 1.0 μg/mL, twenty four hours (cytokines 1.59±0.34, control 3.10±1.53)): 2.20±0.61
- FITC positive population (apoptosis cells) (islets [9]; 2 μg/mL): small increase
- FITC positive population (apoptosis cells) (islets [9]; 4 μg/mL): dramatic increase
- percentage of FITC positive population (apoptosis cells) (islets [9]; low Withaferin A dose samples (0.5 and 1 μg/mL)): close to zero
- percent NF-κB+ insulin positive cells ([10]; cytokine cocktail + 0.5 μg/mL): 19.5±8.1%
- percent NF-κB+ cells ([10]; cytokine cocktail + 1.0 μg/mL): 10.0±4.1%
- IP-10 and MCP-1 levels within beta cells (mean fluorescent intensity) [11]: near control levels
